# Data from US20240299328A1, “COMPOSITIONS COMPRISING 15-HEPE AND METHODS OF TREATING AND/OR PREVENTING HEMATOLOGIC DISORDERS AND RELATED DISEASES” (Afimmune Limited, priority 2023, published 2024).
# Marks after values point to notes of the source that are not given here.
# Experiments:
# [1] = 0.5% HPMC vehicle; same preparation and storage conditions; concentrations bracketing those used; cited from earlier work
# Sprague Dawley rats = assay: 26 week rat toxicity study: hematology; format: in vivo; conditions: male rats, 26 weeks
# Method: The test and control items were administered to the appropriate animals by once daily oral gavage 7 days a week for a minimum of 26 weeks. The volume for each animal was based on the most recent body weight measurements. The doses were given using a syringe with attached gavage cannula. The first day of dosing was designated as Day 1. The dosing formulations were removed from the refrigerator and stirred for at least 30 minutes before dosing. The dosing formulations were also stirred continuously during dosing.
# Sample Collection: Blood was collected via the tail vein unless immediately prior to necropsy, when blood was collected from the orbital sinus under non-recoverable isoflurane anesthesia. Blood was collected in ascending animal order unless samples were collected prior to necropsy where the order of euthanasia was followed. Additional blood samples were obtained (e.g., due to clotting of non-serum samples) if permissible sampling frequency and blood volume were not exceeded. After collection, samples were transferred to the appropriate laboratory for processing. Samples were collected according to the following table.
# Hematology: A 0.5 mL blood sample was collected using the anticoagulant K2EDTA. Blood smears were labelled, stained, and stored. The blood smears were analyzed according to the following parameters.
# Animals: The study used male and female Sprague Dawley rats purchased from Charles River UK Limited (Margate, Kent, UK). The target age at the initial dosing was 7-8 weeks. The target weight at the initial dosing was 175-300 g (males) and 120-250 g (females). Each animal was identified using a subcutaneously implanted electronic cylindrical, “glass-sealed” TROVAN microchip.
# [2] = tested on: humanized sickle cell (SS) mice exposed to H/R stress; assay: Humanized SCD (SS) mice exposed to hypoxia/reoxygenation (H/R) stress: blood, flow cytometry, immunoblot; format: in vivo
# Method: Animals and design of the study: Experiments were performed on 4-5 months-old sex matched healthy control (Hba^tm1(HBA) Tow Hbb^tm3(HBG1, HBB) Tow) and SCD (Hba^tm1(HBA)Tow Hbb^tm2(HBG1.HBB*)Tow) mice. The study used 4-5 months-old mice. The sickle cell related organ damage is not so severe to generate confounding factors when the impact of H/R induced stress is evaluated. This is also corroborated by the observation of Kasztan M et al who show gender-related differences in kidney function of humanized SCD mice becoming significant after 24 weeks (6 months) of age. The size of the mouse groups was established based on studies with the same mouse model for SCD generated by us and other labs. Mice were randomly assigned to the different treatment groups and analysis. Healthy and SS mice were treated with ether vehicle (hydroxypropyl methyl cellulose, HPMC, 0.5%) or Epeleuton in HPMC 0.5% (1000 mg/kg/day) administrated by gavage for 6 weeks. […] When indicated, mice underwent a hypoxia/reoxygenation stress (H/R): 10 hours hypoxia (8% oxygen) followed by 3 hours reoxygenation (21% oxygen) to mimic acute vaso-occlusive crisis as previously described. Whole blood and organs were collected from each mouse under isoflurane anesthesia. Organs were immediately removed and divided into two portions which were either immediately frozen in liquid nitrogen or fixed in 10% formalin and embedded in paraffin for histology. Hematological parameters were evaluated with a Sysmex XN-1000 Hematology Analyzer and red cell morphology was evaluated as previously reported. Biochemical assays were performed using standard biochemical assays, as previously reported. Plasmatic Pentraxin 2 and CCL-2 and CXCL-2 were measured respectively using the Mouse Pentraxin 2/SAP Quantikine ELISA Kit and the next generation ELISA kit according to the manufacturer's instruction.
# Immunoblot analysis: Packed red cells were lysed in ice-cold phosphate lysis buffer (5 mM Na2HPO4, pH 8.0, containing protease inhibitor cocktail tablets, 3 mM benzamidine final concentration, 1 mM Na3VO4 final concentration) and centrifuged 10 min at 4° C. at 12,000 g. Red cell membrane (ghost) and cytosol fractions were obtained as previously reported. Frozen lung, kidney and aorta from each studied group were homogenized and lysed with iced lyses buffer (150 mM NaCl, 25 mM bicine, 0.1% SDS, 2% Triton X-100, 1 mM EDTA, protease inhibitor cocktail tablets, 1 mM Na3VO4 final concentration) then centrifuged 30 min at 4° C. at 12,000 g. Specific antibodies used are: anti Phospho-Tyrosine (clone PY99 from SCBT, Santa Cruz, CA (dilution 1:3000, 75 μg loaded) and clone 4G10 from Merck KGaA, Darmstadt, Germany (dilution 1:1600, 75 μgr loaded)); anti Phospho (Ser536) NF-kB p65 (dilution 1:1000, 75 μg loaded) and anti NF-kB p65 (clone C22B4) (dilution 1:1000, 75 μgr loaded) from Cell Signaling Technology (Danvers, MA, USA); anti-NLRP3/NALP3 from Vinci-Biochem Srl, Vinci, Italy (dilution 1:1000, 75 μgr loaded); anti Endothelin-1 (ET-1) form AbCam, Cambridge, UK (dilution 1:1000, 75 μgr loaded); anti VCAM-1 (R and D Systems, Minneapolis, MN, USA (dilution 1:1000, 40 μgr loaded)); anti ICAM-1 (clone EP1442Y, dilution 1:1000, 75 μgr loaded, AbCam, Cambridge, UK); anti TXAS-1 (Cayman, Ann Arbor, MI, USA); anti Nrf2-phospho-S40 (Clone EP1809Y, dilution 1:1000, 75 μgr loaded, AbCam, Cambridge, UK); anti-Nrf2 (dilution 1:1000, 75 μgr loaded, AbCam, Cambridge, UK); anti Nqo1 from Santa Cruz Biotechnology, Inc, CA, USA (clone C-19; dilution 1:1000, 75 μgr/μl loaded); anti-heme oxygenase 1(HO-1) form SCBT (Santa Cruz, CA, USA (dilution 1:1000, 50 μgr loaded); E-selectin (H-300) (dilution 1:1000, 75 μgr loaded); anti GAPDH from SCBT (Santa Cruz, CA, USA (dilution 1:5000, 50 μgr loaded)); anti Actin from SCBT (Santa Cruz, CA, USA (clone 2A3, dilution 1:1000, 50 μgr/loaded)). […]
# [3] = 6000/3000 mg/kg/day oral gavage
# [4] = H/R, 1000 mg/Kg/d for 6 weeks, vs vehicle
# [5] = H/R, 1000 mg/Kg/day for 6 weeks
smiles,measurement,setting,value
"CC/C=C\C[C@H](O)/C=C/C=C\C/C=C\C/C=C\CCCC(=O)OCC [DS102, 15(S)-hydroxy-(5Z,8Z,11Z,13E,17Z)-eicosapentaenoic acid ethyl ester]",stability of the test item in the vehicle,[1],stable
same,"Red Cell Distribution Width (RDW), Mean",Sprague Dawley rats; 2000 mg/kg/day oral gavage,13.91** %
same,"Red blood cell count (RBC), Mean",Sprague Dawley rats; 2000 mg/kg/day oral gavage,8.67 10^12/L
same,"Reticulocyte count (RETIC), Mean",Sprague Dawley rats; 2000 mg/kg/day oral gavage,1.546e+11 L⁻¹
same,"Red Cell Distribution Width (RDW), Mean",Sprague Dawley rats; [3],13.60** %
same,"Red blood cell count (RBC), Mean",Sprague Dawley rats; [3],8.81** 10^12/L
same,"Reticulocyte count (RETIC), Mean",Sprague Dawley rats; [3],141.46** 10^9/L
same,"spleen macrophage classic inflammatory markers (CD80, CD68)","[2]; 1000 mg/Kg/day for 6 weeks, vs vehicle",significant reduction
same,"H/R induced increase in NLRP3, VCAM-1, ET-1 and TXAS-1 expression in kidney","[2]; H/R, 1000 mg/Kg/d for 6 weeks",reduction
same,NLRP3 inflammasome in lung tissue,"[2]; H/R, 1000 mg/Kg/d for 6 weeks",downregulation
same,VCAM-1 in livers,"[2]; H/R, 1000 mg/Kg/d for 6 weeks",prevented the H/R induced up-regulation
same,activation of NF-kB p65 and Nrf2 in liver,"[2]; H/R, 1000 mg/Kg/d for 6 weeks",reduced activation
same,active forms of NF-kB p65 induced by H/R in lung,"[2]; H/R, 1000 mg/Kg/d for 6 weeks",significant decrease
same,antioxidants NQO1 and HO-1 in liver,"[2]; H/R, 1000 mg/Kg/d for 6 weeks",downregulation
same,expression of NLRP3 in livers,"[2]; H/R, 1000 mg/Kg/d for 6 weeks",lower expression
same,liver protein oxidation,"[2]; H/R, 1000 mg/Kg/d for 6 weeks",marked reduction
same,ET-1 in livers,[2]; [4],trend towards reduction
same,H/R induced activation of NF-kB p65 in kidneys,[2]; [4],decreased
same,H/R induced expression of VCAM-1 in isolated aorta,[2]; [4],significant reduction
same,H/R-induced increases in creatinine and BUN plasma values,[2]; [4],reduction
same,leukocyte infiltrates in kidneys (flow cytometry),[2]; [4],significant reduction
same,H/R-induced increase in neutrophil counts,[2]; [5],significantly reduced
same,amount of sickled red blood cells,[2]; [5],decreased
same,hematocrit (Hct) and hemoglobin (Hb),[2]; [5],prevented the H/R induced reduction
same,plasma C reactive protein (CRP) and pentraxin-2,[2]; [5],decreased
same,spleen neutrophils,"[2]; H/R, 1000 mg/Kg/day for 6 weeks, vs vehicle",significant decrease
same,lactate dehydrogenase (LDH),"[2]; H/R, plasma, 1000 mg/Kg/day for 6 weeks",reduction
same,tyrosine phosphorylation state of band 3,"[2]; H/R, red cell membrane, 1000 mg/Kg/day for 6 weeks",reduction
same,clearance of damaged RBCs,"[2]; spleen macrophages, 1000 mg/Kg/day for 6 weeks, vs vehicle",trend towards reduction
